# Experimental data: patent US12209112B2, “Methods of preventing or treating diseases, conditions, or disorders associated with chemotherapy” (The Chinese University of Hong Kong, priority 2022, dated 2025)
# Where two headings read alike, the source gives them in different places.
# Columns and labels:
# C57BL/6J male mice [1] = details: mouse, in vivo
# Method: (§1) Recombinant human GDF15/MIC-1 protein (CHO-derived) was purchased from PeproTech Inc. (Cranbury, USA) and described in Example 1. […] For in vitro studies, solid lyophilized powder of these two drugs were solubilized at the recommended concentrations in sterile water, and separate aliquots were made and frozen until thawing prior to addition to cell cultures. For in vivo studies, all agents were dissolved in […] normal saline according to the required concentrations (doxorubicin, 5 mg/kg; GDF15, 0.5 mg/kg; dexrazoxane, […]), and the final volume of each intraperitoneal injection was 100 μl. The recommended dose ratio of dexrazoxane to doxorubicin was 10 to 1. In the following examples, 5 mg/kg of doxorubicin was used which correspond to 50 mg/kg of dexrazoxane. The FDA recommends that dexrazoxane be injected within 0.5 hour prior to doxorubicin infusion in individuals. This was followed in the same manner when applying to the test animals.
# The body weight of each mouse was recorded weekly, before each doxorubicin injection and before sacrifice. At the end of experiment, all mice were euthanized with sodium pentobarbital 100 mg/kg administered intraperitoneally, and the hearts were excised immediately. The tibia of the mice were carefully dissected and its length was measured. […]
# C57BL/6J male mice [2] = format: in vivo, mouse
# Method: as §1
# To induce cardiotoxicity in the mouse, four weekly intraperitoneal injections of doxorubicin at 5 mg/kg were administered. After one dose of doxorubicin at 5-6 mg/kg in a mouse, the level of exposure has been estimated to be similar to that of a human individual being given a standard dose of doxorubicin at approximately 60 mg/m^2. Previous studies have shown that mice injected with doxorubicin once a week at 5 mg/kg for four weeks developed cardiotoxicity, as evidenced by decreased ventricular ejection fraction, cardiomyocyte apoptosis, histopathological changes consistent with doxorubicin-induced myocardial damage, and increased mortality rate, compared with the control group.
# The hearts of mice were collected after sacrifice and fixed in 4% paraformaldehyde overnight, followed by paraffin embedding. Afterwards the hearts were cut into 4 μm thick slices. Sections were deparaffinized and rehydrated using sequential immersion in 100% alcohol, 95% alcohol and 70% alcohol for 15 minutes each. […]
# C57BL/6J male mice [3] = format: in vivo, mouse; remark: listed apart in the source
# Method: as §1
# (§2) To induce cardiotoxicity in the mouse, four weekly intraperitoneal injections of doxorubicin at 5 mg/kg were administered. After one dose of doxorubicin at 5-6 mg/kg in a mouse, the level of exposure has been estimated to be similar to that of a human individual being given a standard dose of doxorubicin at approximately 60 mg/m^2. […]
# The image processing and analysis software, ImageJ version 1.53K, was used for evaluation of histopathology from mouse experiments. For Masson's trichrome staining, the acquired images were converted from color to grayscale using ImageJ, the blue-stained collagen were segmented (separated) using thresholding, and the threshold areas in a representative microscopic field were quantified. […] Cells containing brown staining (TUNEL-positive cells) were counted in a representative microscopic field for each mouse in each group.
# hESC-CMs = test: Mitochondrial membrane potential (TMRE); format: cell-based, human
# Method: Mitochondrial membrane potential (MMP) as a measure of mitochondrial function and viability was assessed using tetramethylrhodamine ethyl ester (TMRE) (Thermo Fisher Scientific, USA), a cell-permeant cationic fluorescent dye that is readily taken up by viable mitochondria. hESC-CMs seeded at 15,000 cells per well on a 96-well flat-bottom microtiter plate were cultured at 37° C. in a humidified 5% CO2 atmosphere for at least 3 days before MMP measurement. TMRE dye was applied at 50 nM for 20 minutes in B27+/RPMI−1640 media, followed by fluorescence reading at excitation and emission wavelengths of 485 nm and 528 nm, respectively, using the Synergy HTX Multi-Mode microplate reader.
# C57BL/6J male mice [4] = test: TUNEL staining of mouse myocardium (cardiomyocyte apoptosis); format: in vivo; details: pretreatment before doxorubicin
# Method: as §1, §2
heart weight-to-tibia length ratio (C57BL/6J male mice [1]),Molecule,"myocardial histopathology (hematoxylin and eosin) (C57BL/6J male mice [2]; mouse, in vivo)","cardiac fibrosis (Masson's trichrome) (C57BL/6J male mice [3]; mouse, in vivo)","mitochondrial membrane potential and function (TMRE) (hESC-CMs; 300 ng/ml GDF15 pretreatment, hESC-CMs exposed to doxorubicin)","mitochondrial membrane potential compared with dexrazoxane (hESC-CMs; hESC-CMs, pretreatment in the presence of Dox)",cardiomyocyte death by apoptosis (TUNEL staining) (C57BL/6J male mice [4]),"myocardial histopathology (hematoxylin and eosin) (C57BL/6J male mice [2]; mice, pretreatment before doxorubicin)","cardiac fibrosis (Masson's trichrome) (C57BL/6J male mice [3]; mice, pretreatment before doxorubicin, versus doxorubicin only)"
decrease,"COc1cccc2c1C(=O)c1c(O)c3c(c(O)c1C2=O)C[C@@](O)(C(=O)CO)C[C@@H]3OC1C[C@H](N)[C@H](O)[C@H](C)O1.Cl (stereo partly drawn) [Dox, (8S,10S)-10-[(3-Amino-2,3,6-trideoxy-L-lyxohexopyranosyl)oxy]-7,8,9,10-tetrahydro-6,8,11-trihydroxy-8-(hydroxyacetyl)-1-methoxynaphthacene-5,12-dione hydrochloride, reference compound]","myocardial structural disarray, and microfibrillar disruption and disorganization",diffuse myocardial interstitial fibrosis as well as perivascular fibrosis,,,,,
,"GDF15: commercially available recombinant human GDF-15 protein (PeproTech 120-28C), CHO cell-derived, SEQ ID NO: 1",,,better preserved than at other concentrations,performed similarly to dexrazoxane,reduced extent of cardiomyocyte death by apoptosis,similarly improved,visually and quantitatively reduced
